Laboratory results as given in PubChem BioAssay (NCI).
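How tested: cells in 96-well plates exposed to compound for 48 hours at five concentrations. GI50 is the concentration that inhibits growth by half. TGI denotes the concentration required for complete inhibition of growth.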

How the values were obtained:
Assay in all cases: NCI tumour cell line growth inhibition, 48 h
[1] = tested on: SK-MEL-2 melanoma
[2] = tested on: NCI-H226 lung
[3] = tested on: PC-3 prostate
[4] = tested on: CCRF-CEM leukemia
[5] = tested on: MALME-3M melanoma
[6] = tested on: HT29 colon
[7] = tested on: SK-OV-3 ovarian
[8] = tested on: OVCAR-5 ovarian
[9] = tested on: UACC-62 melanoma
[10] = tested on: 786-0 renal

Structure (SMILES) | TGI [1] [µM] | TGI [2] [µM] | TGI [3] [µM] | TGI [4] [µM] | TGI [5] [µM] | TGI [6] [µM] | TGI [7] [µM] | TGI [8] [µM] | TGI [9] [µM] | TGI [10] [µM] | GI50 [1] [µM] | GI50 [2] [µM] | GI50 [3] [µM] | GI50 [4] [µM] | GI50 [6] [µM] | GI50 [7] [µM] | GI50 [8] [µM] | GI50 [9] [µM] | GI50 [10] [µM] | GI50 [5] [µM]
CCOC(=O)Nc1cc2ccccc2c(N=Nc2ccccc2)c1O | > 100 | > 100 | > 100 | > 100 | > 100 | > 100 | > 100 | > 100 | > 100 | > 100 | – | – | – | – | – | – | – | – | – | –
COc1cc2c(c(OC)c1OC)-c1ccc(N=NC(N)=S)c(=O)cc1[C@@H](NC(C)=O)CC2 | > 100 | > 29.4 | > 100 | > 100 | > 100 | > 100 | – | > 100 | > 100 | – | 0.393 | 2.01 | 0.617 | 0.535 | 0.388 | 0.43 | 2.26 | 0.646 | 1.69 | –
CC(C)(C)N/N=C(\C(=O)NC1=C(Cl)C(=O)c2ccccc2C1=O)C1C=CCS1(=O)=O (configuration not stated) | 24.9 | 27.9 | 62.2 | > 100 | 6.44 | 29.3 | > 100 | 35.5 | 9.17 | 54 | – | – | – | – | – | – | – | – | – | –
CC(=O)Nc1n[n+]([O-])c2cc(C)ccc2[n+]1[O-] | 26.5 | 27.8 | 14.8 | > 47.4 | 18.5 | 13.4 | 20.3 | 33.5 | 6.04 | 17.5 | – | – | – | – | – | – | – | – | – | –
CCCCOC1OC(COC(=O)C(C)C)C(OC(=O)C(C)C)C(O)C1OC1OC(C)C(OC(=O)CCC)C(OC(=O)C(C)C)C1O (configuration not stated) | > 100 | 22.2 | 20.7 | 24.1 | 35.2 | 22.5 | 34 | 25.2 | 24.8 | 26.9 | 36.2 | 9.64 | 8.35 | 10.8 | 9.33 | 19.8 | 12.7 | 12.3 | 14 | 19.5
COc1cnc2c(c1)C(=O)c1c-2n(CCCN2CCC(O)CC2)c(=O)c2cc(Cl)ccc12 | 33.4 | 23.6 | 3.56 | > 100 | 27.9 | 2.43 | 17.5 | 3.43 | 13.7 | 1.36 | 17.4 | 0.662 | 1.46 | 0.066 | 0.59 | 0.341 | 1.63 | 0.191 | 0.28 | 14.1
CC1=Nc2c([nH]c(=S)[nH]c2=O)NC(c2c(Cl)cccc2Cl)C1 (configuration not stated) | 32.9 | 15 | 2.6 | 2.18 | 12.9 | 2.35 | 18.1 | 11.9 | 4.45 | 1.76 | – | – | – | – | – | – | – | – | – | –
CC(=O)/C=C/c1ccc(OCc2ccc(Cl)cc2)cc1 | > 1000 | > 1000 | > 1000 | > 1000 | > 1000 | > 1000 | > 1000 | > 1000 | > 1000 | > 1000 | 473 | > 1000 | 725 | 577 | > 1000 | > 1000 | > 1000 | 218 | 718 | 330
O=C1N(Cc2ccccc2Cl)c2ccccc2C12NN=C(c1cccc(Cl)c1)S2 (configuration not stated) | 3.38 | 2.86 | 3.45 | 4.93 | 3.24 | 4.3 | 3.05 | 3.76 | 3.52 | 3.12 | 1.77 | 1.49 | 1.74 | 1.86 | 2.02 | 1.69 | 1.88 | 1.76 | 1.72 | 1.54
COc1ccc(CCN2CCC(CN(C)Cc3cnn(-c4ccccc4)c3)CC2)cc1 | 32.8 | > 100 | > 100 | 78.6 | 4.29 | 17.3 | 39.9 | 58.3 | 7.36 | 24.6 | 17.3 | 32.5 | 25.1 | 21 | 4.29 | 16.2 | 14.8 | 2.63 | 12 | 2.08
COc1cc(Cl)cc(-c2nn(-c3cccc(NC(=O)Nc4ccc(Cl)c(Cl)c4)c3)cc2-c2ccncc2)c1 | 3.74 | > 100 | 5.28 | 6 | 7.85 | 9.07 | 87 | > 100 | 16.3 | 7.84 | 1.64 | 3.06 | 1.13 | 2 | 2.38 | 3.6 | 4.36 | 2.4 | 2.31 | 2.06
COCCOCCOCc1n(Cc2ccc3ccccc3n2)c2ccccc2[n+]1Cc1ccc2ccccc2n1 | 2.39 | 18.4 | 11.7 | 16 | 8.67 | 10.6 | 6.6 | 18 | 10.2 | 15.5 | 0.447 | 2.44 | 0.591 | 1.78 | 0.53 | 1.79 | 2.5 | 0.424 | 3.74 | 0.658
CC(C)(C)OC(=O)NCc1cccc(N=C=S)c1 | 45.7 | 51.4 | 51.8 | 55.9 | 45.1 | 54 | > 84.9 | 74.9 | 30.6 | 44.1 | 21.3 | 19.1 | 21.5 | 21 | 23.2 | 35.5 | 20.6 | 14.4 | 21.6 | 14.4
